Where “and” joins values, the source holds several entries; their conditions need not be identical. Equal values may be shown once. Read-outs that look alike come from different tables or passages of the source.
Tests used:
mouse quadriceps muscle [1] = assay: Luciferase expression in mouse quadriceps muscle after i.m. injection of plasmid VR1255 with auxiliary agents; settings: 0.01% agent in saline versus saline alone, day 7
mouse quadriceps muscle [2] = assay: Hematocrit after i.m. injection of mouse erythropoietin plasmid (VR2901, VR2996); assay type: in vivo
Method: Hematocrits were measured by centrifugation of blood obtained from the retro-orbital cavity of mice. Blood samples were collected in 75 μl heparinized capillary tubes and analyzed using HemaSTAT II microhematocrit centrifuge (Separation Technology, Inc., Altamonte Springs, Fla.).
The mice were monitored over time for serum hematocrit levels, which correlate with the expression of erythropoeitin.
The mice were monitored over four weeks for serum hematocrit levels, which correlate with the expression of erythropoeitin.
The mice were monitored at days 0, 7, 14, 21, and 28 for serum hematocrit levels, which correlate with the expression of erythropoeitin.
The mice were monitored at days 7, 14, and 28 for serum hematocrit levels, which correlate with the expression of erythropoeitin. Control serum levels were measured before any injections.

pH of the salt solutions = assay type: physicochemical
mouse quadriceps muscle [3] = assay: Luciferase expression in mouse quadriceps muscle 7 days after i.m. injection of plasmid VR1223 in salt solutions; assay type: in vivo; set-up: lux: unit: ng/muscle; settings: for ng Lux/Muscle / ng luciferase per muscle: 50 μg VR1223 in 50 μl; for luciferase expression compared with saline (words): 150 mM solutions; for lux: 7-day luciferase expression, VR1223; for ng Lux per Muscle: 50 μg VR1223 in 50 μl of the solution; for ng lux/muscle: reproducibility
[4] = Osmolarity of the salt solutions; assay type: physicochemical; settings: for Osm: 150 mM unless otherwise indicated
mouse lung = assay: Luciferase expression in mouse lung 3 days after intranasal instillation of VR1223 complexed with GAP-DLRIE/DOPE; assay type: in vivo; settings: 132 μg VR1223 + GAP-DLRIE/DOPE, day 3
mouse quadriceps muscle [5] = assay: Serum human IFN-ω after i.m. injection of plasmid VR4151; assay type: in vivo; settings: 50 μg VR4151, day 7
Method: (§1) Muscle extracts were assayed for β-galactosidase and the serum was assayed for circulating levels of IFN-ω.

mouse quadriceps muscle [6] = assay: β-galactosidase expression in mouse quadriceps muscle after i.m. injection of plasmid VR1418; settings: 10 μg VR1418, day 7
Method: The luciferase content of the samples was calculated from Relative Light Units using a standard curve of purified firefly luciferase (Analytical Luminescence Laboratory, San Diego, Calif.; Cat. No. 2400), which was diluted in pooled extract from uninjected muscles to control for quenching. Luciferase values were expressed as ng luciferase per muscle. […] A standard curve, prepared in pooled extract from uninjected muscles, was included on each plate using the β-galactosidase enzyme standard included in the kit.
as §1
Quadriceps muscles were injected with 50 μl of each solution containing 10 μg of plasmid VR1418, and the muscles were tested for 7-day expression levels.

mouse quadriceps muscle [7] = assay: β-galactosidase-stained muscle fibers after i.m. injection of plasmid VR1412; assay type: in vivo; settings: 50 μg VR1412, day 7, n=10
Method: For whole muscle staining, quadriceps were fixed for 3 hours at room temperature in 2% paraformaldehyde in PBS, washed 3 times for 20 min each in PBS and incubated for 18 hours at 37° C. in a solution containing 2 mM MgCl2, 5 mM potassium ferricferrocyanide and 1 mg/ml 5-bromo-4-chloro-3-indoyl-β-D-galactosidase (available from Life Technologies, Inc. (LTI), Gaithersberg, Md.) in PBS. After incubation, the muscles were washed 3 times for 10 min each in 3% dimethyl sulfoxide in PBS and stored in PBS at 4° C. until analysis. […] Sections were collected on 1% gelatin coated glass slides, brought to room temperature and stained for 2 hours at 37° C. in the same reagent as for whole mounts above except that the beta-galactosidase reagent concentration was 200 μg/ml. The sections were then counterstained with Harris hematoxylin in acetic acid, rinsed in tap water, dehydrated and mounted in Permount (Fisher, Fair Lawn, N.J.).
Individual muscle cells were examined for β-galactosidase expression as follows.
Whole quadriceps muscle groups were harvested on day 7. Muscles were snap frozen in OTC medium (n=10 muscles for each group). 10 micron cross-sections were stained with x-gal (substrate for β-gal). Fibers expressing β-gal (stained blue) were counted.

B16F10 tumor cells = assay: Anti-tumor effect of i.m. mIFN-α plasmid VR4111 in mice bearing subcutaneous B16F10 tumors; assay type: in vivo, mouse
[8] = tested on: tibialis anterior muscles of nude mice; assay: Serum SEAP after injection of plasmid VR3301 into tibialis anterior muscles of nude mice; assay type: in vivo, mouse
Method: Briefly, tissues were rapidly collected and frozen, they were combined with and frozen into a lysis buffer, the tissue was then pulverized with a drill bit run in reverse direction, the resulting powder was thawed, and was extracted two times with extraction buffer. Nude mice were injected with VR3301 DNA bilaterally on three consecutive days for a total of 300 μg DNA per mouse.
Sera from nude mice injected with VR3301 were collected at various times post-injection. […] Samples were assayed in duplicate. Plates were sealed, incubated at 65° C. for 30 min and spun for 5 min at 4000 rpm at room temperature. […] The samples were analyzed using a Molecular Devices Opti Max plate reader (Sunnyvale, Calif.). The plate reader was pre-warmed to 37° C. and a standard kinetic program was used to assay the samples at a wavelength of 405 nm for 30 min.
The mice were monitored over time for blood levels of SEAP or proinsulin or for hematocrits. In the case of SEAP, plasmid DNA was injected into the tibialis anterior muscles, and nude mice were used to prevent an immune response to the foreign transgene product.
The mice were monitored for blood levels of SEAP at day 7 post-injection. Plasmid DNA was injected into the tibialis anterior muscles, and nude mice were used to prevent an immune response to the foreign transgene product.

rectus femoris muscle = settings: group 4
From the text: Two milliliters of DNA were delivered as 1-ml injections into each rectus femoris muscle. Following injection, cats were monitored at 7 day intervals for serum hematocrit levels, which correlate with the expression of erythropoeitin.

[9] = 150 mM unless otherwise indicated
[10] = salts at 150 mM, relative to saline, day 7

octylphenoxypolyethoxyethanol [NONIDET NP-40]
increase of luciferase expression in 154 mM sodium chloride (mouse quadriceps muscle [1]): three-fold
hematocrit versus 150 mM sodium phosphate alone (mouse quadriceps muscle [2]; 5 μg VR2901, 0.01% agent, all time points): higher hematocrit levels
rise in hematocrit (mouse quadriceps muscle [2]; 5 μg VR2901, after day 14): 10%

CC(=O)C(=O)[O-].[Na+] [Sodium Pyruvate]
pH (pH of the salt solutions; [9]): 6.0
ng Lux/Muscle (mouse quadriceps muscle [3]; salts at 150 mM, day 7): 364 ng/Muscle
luciferase expression compared with saline (words) (mouse quadriceps muscle [3]; VR1223, day 7): increased luciferase expression compared with saline
lux (mouse quadriceps muscle [3]; Table III-A): 364
lux (mouse quadriceps muscle [3]; Table III-B): 364
Fold Saline (mouse quadriceps muscle [3]; [10]): 3.1 Fold
Osm [4]: 271 mmol/kg

[Cl-].[Na+] [Sodium Chloride, reference compound]
luciferase expression in lung (mouse lung): 0.14 ng lux/lung
serum IFN-ω levels (mouse quadriceps muscle [5]): 0.14 ng ml serum
β-galactosidase in muscle (mouse quadriceps muscle [6]): 3.0 ng/muscle
pH (pH of the salt solutions): 5.5
pH (pH of the salt solutions; [9]): 5.5
ng Lux per Muscle (mouse quadriceps muscle [3]; day 7, listed as 100 mM Sodium Chloride): 112 ng per Muscle
ng Lux per Muscle (mouse quadriceps muscle [3]; day 7, listed as 150 mM Sodium Chloride (saline)): 119 ng per Muscle
ng luciferase per muscle (mouse quadriceps muscle [3]; day 7, listed as 100 mM NaCl): 112 ng luciferase per muscle
ng luciferase per muscle (mouse quadriceps muscle [3]; day 7, listed as saline): 119 ng luciferase per muscle and 89 ng luciferase per muscle
ng Lux/Muscle (mouse quadriceps muscle [3]; salts at 150 mM, day 7): 119 ng/Muscle
luciferase in muscle (mouse quadriceps muscle [3]; Example 4, run in parallel, day 7): 159 ng/muscle
lux (mouse quadriceps muscle [3]; Table III-A): 119
lux (mouse quadriceps muscle [3]; Table III-A, listed as 100 mM NaCl): 112
lux (mouse quadriceps muscle [3]; Table III-A, listed as 150 mM NaCl (Saline)): 119
lux (mouse quadriceps muscle [3]; Table III-B, listed as 100 mM NaCl): 112
lux (mouse quadriceps muscle [3]; Table III-B, listed as 150 mM NaCl (Saline)): 119
ng luciferase/muscle (mouse quadriceps muscle [3]; average of all 9 experiments): 120 ng luciferase/muscle
Fold Saline (mouse quadriceps muscle [3]; luciferase expression relative to saline, day 7, listed as 100 mM Sodium Chloride): 0.9 Fold
Fold Saline (mouse quadriceps muscle [3]; luciferase expression relative to saline, day 7, listed as 150 mM Sodium Chloride (saline)): 1.0 Fold
ng lux/muscle (mouse quadriceps muscle [3]; Exp. #1): 49 ng lux/muscle
ng lux/muscle (mouse quadriceps muscle [3]; Exp. #9): 156 ng lux/muscle
Fold Saline (mouse quadriceps muscle [3]; [10]): 1.0 Fold
β-galactosidase-positive myofiber cells (mouse quadriceps muscle [7]): 108+/−21 myofiber cells/muscle section
tumor volume (B16F10 tumor cells; 27 days, VR4111): 2069 mm^3
survival versus blank DNA in saline (B16F10 tumor cells; p<0.007, Kaplan-Meier): statistically significant survival difference
mice surviving (B16F10 tumor cells; to day 38, VR4111): 2 out of 10
Osm ([4]; listed as 100 mM NaCl): 215 mmol/kg
Osm ([4]; listed as 150 mM NaCl (Saline)): 310 mmol/kg
osmolarity ([4]; listed as saline): 310 mmol/kg and 308 mmol/kg

O [Double-distilled water, reference compound]
luciferase expression in lung (mouse lung): 0.94 ng lux/lung
ng Lux per Muscle (mouse quadriceps muscle [3]; day 7): 4 ng per Muscle
ng luciferase per muscle (mouse quadriceps muscle [3]; day 7): 4 ng luciferase per muscle
luciferase expression, times lower than saline (mouse quadriceps muscle [3]; VR1223, day 7): 25 times
Fold Saline (mouse quadriceps muscle [3]; luciferase expression relative to saline, day 7): 0.03 Fold

O=P(O)(O)O [Potassium Phosphate]
pH (pH of the salt solutions; [9]): 7.5
ng Lux/Muscle (mouse quadriceps muscle [3]; salts at 150 mM, day 7): 449 ng/Muscle
luciferase expression compared with saline (words) (mouse quadriceps muscle [3]; VR1223, day 7): stimulated expression just as well as solution of 150 mM sodium phosphate
lux (mouse quadriceps muscle [3]; Table III-A): 449
lux (mouse quadriceps muscle [3]; Table III-B): 449
Fold Saline (mouse quadriceps muscle [3]; [10]): 3.8 Fold
Osm [4]: 323 mmol/kg

O=C([O-])O.[Na+] [Sodium Bicarbonate]
pH (pH of the salt solutions): 9.0
pH (pH of the salt solutions; [9]): 9.0
ng Lux/Muscle (mouse quadriceps muscle [3]; salts at 150 mM, day 7): 330 ng/Muscle
luciferase expression compared with saline (words) (mouse quadriceps muscle [3]; VR1223, day 7): increased luciferase expression compared with saline
lux (mouse quadriceps muscle [3]; Table III-A): 330
lux (mouse quadriceps muscle [3]; Table III-B): 330
luciferase expression, fold over saline (mouse quadriceps muscle [3]; VR1223, day 7): 2.8 fold
Fold Saline (mouse quadriceps muscle [3]; [10]): 2.8 Fold
Osm [4]: 727 mmol/kg

O=P([O-])(O)O.[Na+] [Sodium monobasic, NaH2PO4]
pH (pH of the salt solutions; [9]): 5.5
ng Lux/Muscle (mouse quadriceps muscle [3]; salts at 150 mM, day 7): 198 ng/Muscle
luciferase expression compared with saline (words) (mouse quadriceps muscle [3]; VR1223, day 7): only slightly stimulated over saline
lux (mouse quadriceps muscle [3]; Table III-A): 198
lux (mouse quadriceps muscle [3]; Table III-B): 198
Fold Saline (mouse quadriceps muscle [3]; [10]): 1.7 Fold
Osm [4]: 277 mmol/kg

[Cl-].[Cl-].[Mg+2] [Magnesium Chloride]
pH (pH of the salt solutions; [9]): 5.5
ng Lux/Muscle (mouse quadriceps muscle [3]; salts at 150 mM, day 7): 1 ng/Muscle
luciferase expression compared with saline (words) (mouse quadriceps muscle [3]; VR1223, day 7): no ability to enhance
lux (mouse quadriceps muscle [3]; Table III-A): 1
lux (mouse quadriceps muscle [3]; Table III-B): 1
Fold Saline (mouse quadriceps muscle [3]; [10]): <0.1 Fold
Osm [4]: 360 mmol/kg

octyl phenol ethylene oxide condensate with about 9-10 ethylene oxide units [Triton X-100]
SEAP expression with 100 μg DNA plus agent versus 300 μg DNA in 150 mM sodium phosphate alone ([8]; day 7): nearly equivalent
SEAP expression, fold compared with sodium phosphate alone ([8]; day 7): 1.7 fold
SEAP expression, fold compared with 150 mM sodium phosphate alone ([8]; day 35): 2 fold
increase of luciferase expression in 154 mM sodium chloride (mouse quadriceps muscle [1]): six-fold
period of elevated hematocrit (rectus femoris muscle): > 40 days
mice with anti-β-galactosidase antibody (β-galactosidase; 10 μg VR1412, four weeks): three of the five
mice with anti-β-galactosidase antibody (β-galactosidase; 10 μg VR1412, ten weeks): four of the five

O=C([O-])C(=O)[O-].[Na+].[Na+] [Sodium Oxalate]
pH (pH of the salt solutions; [9]): 6.5
ng Lux/Muscle (mouse quadriceps muscle [3]; salts at 150 mM, day 7): 15 ng/Muscle
luciferase expression compared with saline (words) (mouse quadriceps muscle [3]; VR1223, day 7): inhibited luciferase expression
luciferase expression compared with saline (words) (mouse quadriceps muscle [3]; VR1223, day 7, listed as 150 mM sodium oxalate): no ability to enhance
lux (mouse quadriceps muscle [3]; Table III-A): 15
lux (mouse quadriceps muscle [3]; Table III-B): 15
Fold Saline (mouse quadriceps muscle [3]; [10]): <0.1 Fold
Osm [4]: 346 mmol/kg

CC(=O)[O-].[Na+] [Sodium Acetate]
pH (pH of the salt solutions; [9]): 6.5
ng Lux/Muscle (mouse quadriceps muscle [3]; salts at 150 mM, day 7): 498 ng/Muscle
luciferase expression compared with saline (words) (mouse quadriceps muscle [3]; VR1223, day 7): increased luciferase expression compared with saline
lux (mouse quadriceps muscle [3]; Table III-A): 498
lux (mouse quadriceps muscle [3]; Table III-B): 498
Fold Saline (mouse quadriceps muscle [3]; [10]): 4.1 Fold
Osm [4]: 271 mmol/kg

O=C([O-])CC(O)(CC(=O)[O-])C(=O)[O-].[Na+].[Na+].[Na+] [Sodium Citrate]
pH (pH of the salt solutions; [9]): 7.5
ng Lux/Muscle (mouse quadriceps muscle [3]; salts at 150 mM, day 7): 90 ng/Muscle
luciferase expression compared with saline (words) (mouse quadriceps muscle [3]; VR1223, day 7, listed as 150 mM sodium citrate): no ability to enhance
luciferase expression compared with saline (words) (mouse quadriceps muscle [3]; VR1223, day 7, listed as Sodium citrate): same luciferase expression as saline
luciferase expression compared with saline (words) (mouse quadriceps muscle [3]; VR1223, day 7, listed as sodium citrate): the same as with saline
lux (mouse quadriceps muscle [3]; Table III-A): 108
lux (mouse quadriceps muscle [3]; Table III-A, listed as 50 mM Sodium Citrate): 83
lux (mouse quadriceps muscle [3]; Table III-B): 108
lux (mouse quadriceps muscle [3]; Table III-B, listed as 50 mM Sodium Citrate): 83
Fold Saline (mouse quadriceps muscle [3]; [10]): <0.1 Fold
osmolarity [4]: 394 mmol/kg
Osm [4]: 394 mmol/kg
Osm ([4]; listed as 50 mM Sodium Citrate): 164 mmol/kg

[Cl-].[K+] [Potassium Chloride]
pH (pH of the salt solutions; [9]): 5.5
ng Lux/Muscle (mouse quadriceps muscle [3]; salts at 150 mM, day 7): 124 ng/Muscle
luciferase expression compared with saline (words) (mouse quadriceps muscle [3]; VR1223, day 7): no ability to enhance
lux (mouse quadriceps muscle [3]; Table III-A): 124
lux (mouse quadriceps muscle [3]; Table III-B): 124
Fold Saline (mouse quadriceps muscle [3]; [10]): 1.0 Fold
Osm [4]: 280 mmol/kg

[Cl-].[Cl-].[Zn+2] [Zinc Chloride]
pH (pH of the salt solutions; [9]): 5.0
ng Lux/Muscle (mouse quadriceps muscle [3]; salts at 150 mM, day 7): 0.1 ng/Muscle
luciferase expression compared with saline (words) (mouse quadriceps muscle [3]; VR1223, day 7): no ability to enhance
lux (mouse quadriceps muscle [3]; Table III-A): 0.1
lux (mouse quadriceps muscle [3]; Table III-B): 0.1
Fold Saline (mouse quadriceps muscle [3]; [10]): <0.1 Fold
Osm [4]: 358 mmol/kg

Source: patent publication US6875748B2, “Compositions and methods for in vivo delivery of polynucleotide-based therapeutics” (Vical Incorporated, priority 2000, dated 2005)
